The source of these data is publication PMC8848768, “Synthesis and evaluation of potent yaku'amide A analogs” (Chemical Science, 2022).

A word on the IC50: it is the point on the concentration scale where inhibition reaches its midpoint.

Assay [1] has as its system NCIH1048. Put plainly: cells. Particulars: read-out: Aver IC50, NCIH1048; NCIH1048 (Lung - SCLC); MTS, 72 hours, 37 °C, 5% CO2, 384-well; n>2 independent studies (in duplicate). How it is done:
(§1) The antiproliferative activity profiles of 1a, its full-length analogs 2a and 2b, and its partial structures (23, 24, 26, and 30) were determined by in vitro screening in 72 hours MTS cell proliferation assays against a panel of 18 different human cancer cell lines. […] The three peptides were also evaluated for their antiproliferative activity against the lung fibroblast MRC5 cell line.
(§2) Cells (40 µ L) are added into individual wells of a 384-well black/clear bottom plate on day zero at concentrations enabling continuous log growth over the course of the assay. On day one, compounds (or DMSO) are transferred using an ATS-liquid handler (100 nL per well) to individual wells containing cells and the cells are treated for 72 hours (37 °C, 5% CO 2) prior to measuring proliferation using MTS reagent following manufacturer’s instructions. Net OD values are determined by subtracting the average OD values of cells (measured on day 1, T = 0) from average total OD value of cells (measured on day 4, T = 72h). IC 50 values are calculated using proprietary software (IC 50 values normalized against all compounds). Results represent n>2 independent studies (in duplicate).
(§3) Table S1. Antiproliferative Data of Compounds 1a, 2a, 2b, 23, 24, 26, and 30.
(§4) Table S2. Human Cell Line Descriptions.
(§5) Human Cell Line* Description
(§6) *All cells were obtained from ATCC and are authenticated

Assay [2] relates to HL60. In words: cells. The following applies: read-out: Aver IC50, HL60; HL60 (Leukema - Promyelocytic); MTS, 72 hours, 37 °C, 5% CO2, 384-well; n>2 independent studies (in duplicate). How it is done: as §1, §2, §3, §4, §5, §6
The test system of assay [3] is JURKAT. In words: cells. The following applies: read-out: Aver IC50, JURKAT; JURKAT (acute T-cell leukemia); MTS, 72 hours, 37 °C, 5% CO2, 384-well; n>2 independent studies (in duplicate). How it is done: as §1, §2, §3, §4, §5, §6
Assay [4] deals with A549. Put plainly: cells. The following applies: read-out: Aver IC50, A549; A549 (Lung - NSCLC); MTS, 72 hours, 37 °C, 5% CO2, 384-well; n>2 independent studies (in duplicate). Here is the method: as §1, §2, §3, §4, §5, §6
For assay [5], the system named is MV411. In words: cells. Particulars: read-out: Aver IC50, MV411; MV411 (Acute Myeloid Leukemia); MTS, 72 hours, 37 °C, 5% CO2, 384-well; n>2 independent studies (in duplicate). How it is done: as §1, §2, §3, §4, §5, §6
Assay [6] has as its system COLO678. Put plainly: cells. The following applies: read-out: Aver IC50, COLO678; COLO678 (Colon Carcinoma); MTS, 72 hours, 37 °C, 5% CO2, 384-well; n>2 independent studies (in duplicate). How it is done: as §1, §2, §3, §4, §5, §6
For assay [7], the system named is A375. In words: cells. Particulars: read-out: Aver IC50, A375; A375 (Malignant Melanoma); MTS, 72 hours, 37 °C, 5% CO2, 384-well; n>2 independent studies (in duplicate). Here is the method: as §1, §2, §3, §4, §5, §6
Assay [8] relates to lung fibroblast MRC5 cell line. Put plainly: cells. Particulars: read-out: Aver IC50, MRC5; MRC5 (Lung Fibroblast, noncancerous); MTS, 72 hours, 37 °C, 5% CO2, 384-well; n>2 independent studies (in duplicate). Here is the method:
as §1, §2, §3, §4, §5, §6

The subject of assay [9] is BXPC3. Put plainly: cells. Particulars: read-out: Aver IC50, BXPC3; BXPC3 (Pancreatic - Adenocarcinoma); MTS, 72 hours, 37 °C, 5% CO2, 384-well; n>2 independent studies (in duplicate). How it is done:
as §1, §2, §3, §4, §5, §6

Assay [10] concerns SNUC1. Put plainly: cells. The following applies: read-out: Aver IC50, SNUC1; SNUC1 (Colon Carcinoma); MTS, 72 hours, 37 °C, 5% CO2, 384-well; n>2 independent studies (in duplicate). Here is the method:
as §1, §2, §3, §4, §5, §6

Assay [11] has as its system RAMOS. In words: cells. The following applies: read-out: Aver IC50, RAMOS; RAMOS (Burkitt's lymphoma); MTS, 72 hours, 37 °C, 5% CO2, 384-well; n>2 independent studies (in duplicate). Here is the method:
as §1, §2, §3, §4, §5, §6

Assay [12] concerns HT29. In words: cells. Particulars: read-out: Aver IC50, HT29; HT29 (Colon Carcinoma); MTS, 72 hours, 37 °C, 5% CO2, 384-well; n>2 independent studies (in duplicate). Here is the method:
as §1, §2, §3, §4, §5, §6

Assay [13] deals with U937. Put plainly: cells. Particulars: read-out: Aver IC50, U937; U937 (Pro-monocytic, Human Myeloid Leukemia); MTS, 72 hours, 37 °C, 5% CO2, 384-well; n>2 independent studies (in duplicate). How it is done:
as §1, §2, §3, §4, §5, §6

Assay [14] relates to OVCAR3. Put plainly: cells. The following applies: read-out: Aver IC50, OVCAR3; OVCAR3 (Ovary - Adenocarcinoma); MTS, 72 hours, 37 °C, 5% CO2, 384-well; n>2 independent studies (in duplicate). How it is done: as §1, §2, §3, §4, §5, §6
Assay [15] has as its system HCT116. Put plainly: cells. Particulars: read-out: Aver IC50, HCT116; HCT116 (Colon Carcinoma); MTS, 72 hours, 37 °C, 5% CO2, 384-well; n>2 independent studies (in duplicate). Here is the method:
as §1, §2, §3, §4, §5, §6

Assay [16] deals with PANC1005. In words: cells. The following applies: read-out: Aver IC50, PANC1005; PANC1005 (Pancreatic - Adenocarcinoma); MTS, 72 hours, 37 °C, 5% CO2, 384-well; n>2 independent studies (in duplicate). How it is done: as §1, §2, §3, §4, §5, §6
For assay [17], the system named is THP1. Put plainly: cells. The following applies: read-out: Aver IC50, THP1; THP1 (Acute Monocytic Leukemia); MTS, 72 hours, 37 °C, 5% CO2, 384-well; n>2 independent studies (in duplicate). How it is done:
as §1, §2, §3, §4, §5, §6

Assay [18] relates to CALU6. Put plainly: cells. The following applies: read-out: Aver IC50, CALU6; CALU6 (Lung - Adenocarcinoma); MTS, 72 hours, 37 °C, 5% CO2, 384-well; n>2 independent studies (in duplicate). Here is the method: as §1, §2, §3, §4, §5, §6
For assay [19], the system named is MCF7. The following applies: MCF7 (Breast Carcinoma), MTS, 72 hours, 37 °C, 5% CO2, 384-well, n>2 independent studies (in duplicate). Here is the method:
as §1, §2, §3, §4, §5, §6

Assay [20] relates to P388 murine leukemia cells. Particulars: cited from earlier work. An excerpt: The linear peptide yaku'amide A (1a, Fig. 1) was isolated by Matsunaga and co-workers from the deep-sea sponge Ceratopsion sp.[1] It contains several unusual β-tert-hydroxy amino acids (β-OHAAs) and tetrasubstituted dehydroamino acids (ΔAAs).

For “yaku'amide A [Compound 1a, reference compound]”, the IC50 came to 3.11 µM in assay [1]; 0.578 µM in [2]; 4.95 µM in assay [3]; 0.108 µM in assay [4]; 0.119 µM in assay [5]; 2.69 µM in [6]. Further, the IC50 worked out at 2.14 µM in [7]; 14.5 µM in [8]; 3.82 µM in [9]; 0.129 µM in assay [10]; 0.975 µM in [11]; 2.89 µM in assay [12]. The IC50 in [13] came to 1.21 µM; in [14], 0.227 µM; in assay [15], 1.74 µM; in assay [16] it was 2.83 µM; in [17], 9.29 µM; in assay [18] it was 2.22 µM. Further, the IC50 in assay [19] (read-out: Aver IC50, MCF7) was found to be 0.125 µM. Besides, in assay [19], the “Aver IC50, MCF7” value is recorded as “potent”. Besides, in [20], the “IC50, growth inhibition of P388 murine leukemia cells” value is 0.014 µg/mL.
